In article PMC5104943, “Structural and Functional Characterization of a Ruminal β-Glycosidase Defines a Novel Subfamily of Glycoside Hydrolase Family 3 with Permuted Domain Topology” (The Journal of Biological Chemistry, 2016):

Biological target: T1, GlyA1-ΔCt (rumen metagenome, UniProt Z9J456A3C9)
T1 sequence (Z9J456A3C9 2-799): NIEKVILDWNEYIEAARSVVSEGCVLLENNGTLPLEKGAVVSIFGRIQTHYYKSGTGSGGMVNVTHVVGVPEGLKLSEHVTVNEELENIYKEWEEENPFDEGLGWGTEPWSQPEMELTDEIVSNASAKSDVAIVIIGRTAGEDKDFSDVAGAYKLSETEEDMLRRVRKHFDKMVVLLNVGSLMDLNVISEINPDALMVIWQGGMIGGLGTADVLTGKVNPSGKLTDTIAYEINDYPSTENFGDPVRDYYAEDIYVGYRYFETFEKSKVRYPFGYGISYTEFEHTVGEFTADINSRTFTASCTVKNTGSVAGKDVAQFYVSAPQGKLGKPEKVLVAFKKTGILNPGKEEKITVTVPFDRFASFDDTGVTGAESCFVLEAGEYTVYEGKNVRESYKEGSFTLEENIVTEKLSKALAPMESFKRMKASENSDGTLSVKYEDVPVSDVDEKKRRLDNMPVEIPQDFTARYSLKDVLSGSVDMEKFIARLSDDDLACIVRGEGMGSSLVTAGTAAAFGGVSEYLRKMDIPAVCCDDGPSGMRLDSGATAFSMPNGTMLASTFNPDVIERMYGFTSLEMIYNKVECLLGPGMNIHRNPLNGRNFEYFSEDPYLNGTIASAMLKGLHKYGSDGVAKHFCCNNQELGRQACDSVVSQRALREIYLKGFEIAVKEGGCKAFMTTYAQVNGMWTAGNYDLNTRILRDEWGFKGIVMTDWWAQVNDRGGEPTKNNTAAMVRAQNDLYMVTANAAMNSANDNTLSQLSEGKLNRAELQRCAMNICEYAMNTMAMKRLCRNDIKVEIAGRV
Assay: X-ray crystallography, […] Å, soak […]
Format: binding
Conditions: active site subsite -1, semi-chair conformation; 2.0 M ammonium sulfate, pH 5.5

OC[C@H]1OC(O)[C@H](O)[C@@H](O)[C@H]1O (stereo partly drawn) [D-galactose]
X-ray crystallography, 2.29 Å, soak 5-50 mM: soaking of crystals with galactose showed that this sugar displays a semi-chair conformation
